Results from patent publication US20130017540A1, “IDENTIFICATION OF MUTATION TYPES ASSOCIATED WITH ACQUIRED RESISTANCE AND METHODS FOR USING SAME” (priority 2011, published 2013).

Tested on: KCL-22 cells
Assay: Soft agar colony formation assay with imatinib
Type: cell-based
Conditions: 2.5 μM imatinib, one million KCL-22 cells per well, 3 weeks
Description: One million KCL-22 cells were seeded per well in triplicate and incubated for 3 weeks. Plates were then stained with 0.005% Crystal Violet for 1 hour, and colonies were scored by microscope.

Cc1ccc(NC(=O)c2ccc(CN3CCN(C)CC3)cc2)cc1Nc1nccc(-c2cccnc2)n1 [imatinib]
T315I mutation rate on soft agar, μ: 2.40 × 10^−4 T315I mutations incurred per BCR-ABL fusion gene
T315I mutation rate on soft agar, μ (listed as Imatinib): 2.40 × 10^−4 ± 2.89 × 10^−5 T315I mutations incurred per BCR-ABL fusion gene
